In PMC9916356, “Design, Synthesis and Pharmacological Evaluation of New Quinoline-Based Panx-1 Channel Blockers” (International Journal of Molecular Sciences, 2023):
Like-named read-outs stand apart in the source and are kept apart here.

Experiments:
[1] = physchem; design: chemical stability in PBS at 37 °C, HPLC-MS/MS, half-life from first-order degradation plot; settings: PBS
Description: (§1) In these assays, the variation of analytes concentration at four different incubation times both in PBS and in human plasma samples was monitored to evaluate their susceptibility toward spontaneous or enzymatic hydrolysis, respectively. By plotting any variation of analyte concentration vs. the incubation time, the corresponding degradation profiles in tested matrices were obtained. The analyte concentration (1 µM) used during the stability tests is generally smaller than its Michaelis–Menten constant (KM), and the enzymatic degradation rate is described by a first-order kinetic. Therefore, by plotting the natural logarithm of the quantitative data versus the incubation time, a linear function can be used, and its slope represents the degradation rate (k). Accordingly, with the linear function, the half-life (t1/2) of each tested compound can be calculated as follows: t1/2=[…] The plots of the natural logarithm of the quantitative data versus the incubation time of all the studied compounds were analyzed. […] Parameters beyond this value will be indicated as >120 min. […] The degradation plots in PBS and human plasma of our ester compounds are reported in Supporting Information (Figures S1–S6 and Table S1).

[2] = in vitro; design: stability in human plasma at 37 °C, HPLC-MS/MS, half-life from first-order degradation plot; settings: plasma; human plasma; read-out: H-pl
Description: as §1

[3] = target: T1, Panx-1 (Mus musculus, UniProt Q9JIP4); test: two-electrode voltage clamp, Xenopus laevis oocytes, single dose […]; assay type: cell-based
T1 construct: gene Panx1

[4] = target: T1, Panx-1; test: two-electrode voltage clamp, Xenopus laevis oocytes expressing mouse pannexin1; assay type: cell-based
[5] = target: T1, Panx-1; test: two-electrode voltage clamp in oocytes, […] CBX applied in each experiment; assay type: cell-based; settings: read-out: % inhibition at 100 μM

T1 sequence (Q9JIP4 whole entry): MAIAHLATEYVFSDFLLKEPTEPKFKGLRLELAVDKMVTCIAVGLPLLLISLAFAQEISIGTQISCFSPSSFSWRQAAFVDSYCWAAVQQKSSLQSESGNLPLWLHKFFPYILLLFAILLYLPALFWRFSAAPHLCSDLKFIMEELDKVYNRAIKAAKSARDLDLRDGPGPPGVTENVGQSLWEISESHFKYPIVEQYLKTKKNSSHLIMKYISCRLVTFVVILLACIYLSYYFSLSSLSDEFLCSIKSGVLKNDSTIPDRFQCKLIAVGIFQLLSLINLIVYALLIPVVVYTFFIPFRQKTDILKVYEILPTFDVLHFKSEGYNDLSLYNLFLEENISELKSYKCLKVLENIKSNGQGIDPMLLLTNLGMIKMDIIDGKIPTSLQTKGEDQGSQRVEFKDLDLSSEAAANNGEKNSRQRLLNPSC

Structure (SMILES) | half-life at 1 µM [1] [h] | half-life at 1 µM [2] [h] | IC50 [4] [µM] | further results
CCOC(=O)c1cn(CCc2ccccc2)c2ccc([N+](=O)[O-])cc2c1=O [4b, Ethyl 6-nitro-4-oxo-1-phenethyl-1,4-dihydroquinoline-3-carboxylate] | > 2 | > 2 |  | 
CCOC(=O)c1cn(CCCCc2ccccc2)c2ccc([N+](=O)[O-])cc2c1=O [4d, Ethyl 6-nitro-4-oxo-1-(4-phenylbutyl)-1,4-dihydroquinoline-3-carboxylate] | > 2 | > 2 |  | 
CCOC(=O)c1cn(CCCCCc2ccccc2)c2ccc([N+](=O)[O-])cc2c1=O [4e, Ethyl 6-nitro-4-oxo-1-(5-phenylpentyl)-1,4-dihydroquinoline-3-carboxylate] | > 2 | > 2 |  | 
CCOC(=O)c1cn(Cc2ccc(S(N)(=O)=O)cc2)c2ccc([N+](=O)[O-])cc2c1=O [4f, Ethyl 6-nitro-4-oxo-1-(4-sulfamoylbenzyl)-1,4-dihydroquinoline-3-carboxylate] | > 2 | > 2 |  | 
O=C(O)c1cn(Cc2ccccc2)c2ccc([N+](=O)[O-])cc2c1=O [6a, 1-Benzyl-6-nitro-4-oxo-1,4-dihydroquinoline-3-carboxylic acid] |  |  |  | inhibition at 50 µM ([3]; read-out: TABLE 1): 53 ± 2.9%
NS(=O)(=O)c1ccc(Cn2cc(C(=O)O)c(=O)c3cc([N+](=O)[O-])ccc32)cc1 [6f, 6-Nitro-4-oxo-1-(4-sulfamoylbenzyl)-1,4-dihydroquinoline-3-carboxylic acid] |  |  | 3 | 
O=C(O)c1ccc(Cn2cc(C(=O)O)c(=O)c3cc([N+](=O)[O-])ccc32)cc1 [6g, 1-(4-Carboxybenzyl)-6-nitro-4-oxo-1,4-dihydroquinoline-3-carboxylic acid] |  |  | 1.5 | 
CCCNS(=O)(=O)c1ccc(Nc2c(C(=O)O)cnc3ccccc23)cc1 [13d, 4-[4-(N-Propylsulfamoyl)phenyl]aminoquinoline-3-carboxylic acid] |  |  |  | inhibition at 50 µM ([3]; read-out: TABLE 2): 66 ± 4%
CCCN(CCC)S(=O)(=O)c1ccc(Nc2c(C(=O)O)cnc3ccccc23)cc1 [13e, 4-[4-(N,N-Dipropylsulfamoyl)phenyl]aminoquinoline-3-carboxylic acid] |  |  | 4.2 | 
O=C(O)c1ccc(Nc2c(C(=O)O)cnc3ccccc23)cc1 [13g, 4-[(4-Carboxyphenyl)amino]quinoline-3-carboxylic acid] |  |  | 15.5 | 
CC1(C)[C@@H](OC(=O)CCC(=O)O)CC[C@]2(C)[C@H]3C(=O)C=C4[C@@H]5C[C@@](C)(C(=O)O)CC[C@]5(C)CC[C@@]4(C)[C@]3(C)CC[C@@H]12 [CBX, carbenoxolone] |  |  |  | inhibition at 100 µM [5]: 100%
Nc1ccc2c(c1)c(=O)c(C(=O)O)cn2Cc1ccccc1 [compound 8, 6-Amino-1-benzyl-4-oxo-1,4-dihydroquinoline-3-carboxylic acid] |  |  |  | inhibition at 50 µM ([3]; read-out: TABLE 1): 57 ± 5.9%
